# Measurements reported in ChEMBL document CHEMBL1201862, “PubChem BioAssay data set” (2004).
# Values joined by “and” are separate entries in the source; they are usually repeats but may differ in a detail not shown here. Equal values may be shown once.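 Exposure lasted 48 hours, with cells grown in 96-well plates and compounds tested at five concentrations. Abbreviation: GI50, concentration required for 50% inhibition of growth.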 Active and inactive are the calls of the source. Rule as the data show it: active = GI50 up to about 1.1 µM and inactive = higher. Square brackets hold non-standard residues; d marks the D form. Peptide text beside a SMILES is read from it. * marks the point of attachment. ξ: configuration not given here. ξF = NC(Cc1ccccc1)C(=O)O; Cbz = O=C(OCc1ccccc1)*; Aib = CC(C)(N)C(=O)O
# Key:
# Assay in all cases: inhibition of tumour cell growth, NCI panel, 48 h
# HOP-62 = test system: HOP-62
# SK-MEL-2 = test system: SK-MEL-2
# UACC-62 = test system: UACC-62
# UACC-257 = test system: UACC-257
# SF-295 = test system: SF-295
# BT-549 = test system: BT-549
# T47D = test system: T47D
# Hs-578T = test system: Hs-578T
# Malme-3M = test system: Malme-3M
# A498 = test system: A498
# MDA-MB-231 = test system: MDA-MB-231
# NCI-H226 = test system: NCI-H226
# SNB-75 = test system: SNB-75
# M14 = test system: M14
# HOP-92 = test system: HOP-92
# OVCAR-5 = test system: OVCAR-5
# EKVX = test system: EKVX
# PC-3 = test system: PC-3
# HCC 2998 = test system: HCC 2998
SMILES,GI50 (HOP-62),GI50 (SK-MEL-2),GI50 (UACC-62),GI50 (UACC-257),GI50 (SF-295),GI50 (BT-549),GI50 (T47D),GI50 (Hs-578T),GI50 (Malme-3M),GI50 (A498),GI50 (MDA-MB-231),GI50 (NCI-H226),GI50 (SNB-75),GI50 (M14),GI50 (HOP-92),GI50 (OVCAR-5),GI50 (EKVX),GI50 (PC-3),GI50 (HCC 2998)
O=C1CCC(c2ccccc2)(c2ccccc2)CC1,> 100 µM (inactive),> 100 µM (inactive),> 100 µM (inactive),> 100 µM (inactive),> 100 µM (inactive),83.2 µM (inactive),41.5 µM (inactive),81.1 µM (inactive),> 100 µM (inactive),> 100 µM (inactive),> 100 µM (inactive),36.6 µM (inactive),> 100 µM (inactive),65.8 µM (inactive),> 100 µM (inactive),> 100 µM (inactive),92.3 µM (inactive),73.6 µM (inactive),–
COC(=O)C1=C(C)NC2=C(C(=O)c3ccccc32)C1c1c[nH]nc1-c1ccccc1 (stereo not given),64.9 µM (inactive),33.7 µM (inactive),35.6 µM (inactive),70.5 µM (inactive),> 100 µM (inactive),> 100 µM (inactive),90.6 µM (inactive),21.5 µM (inactive),25.2 µM (inactive),48.5 µM (inactive),30.1 µM (inactive),41.2 µM (inactive),13.3 µM (inactive),> 100 µM (inactive),> 100 µM (inactive),> 100 µM (inactive),16.1 µM (inactive),52.1 µM (inactive),–
CN(C)CCCn1c(Cc2ccccc2)nc2cc(C(F)(F)F)ccc21,26.4 µM (inactive),17.5 µM (inactive),18.8 µM (inactive),18.1 µM (inactive),17.1 µM (inactive),29.2 µM (inactive),19.9 µM (inactive),45.6 µM (inactive),17.7 µM (inactive),15 µM (inactive),22.4 µM (inactive),40.3 µM (inactive),52.8 µM (inactive),15.5 µM (inactive),20 µM (inactive),78.7 µM (inactive),30.1 µM (inactive),29 µM (inactive),–
Cn1c2c(c3c(=O)[nH]ncc31)CCc1ccccc1-2,78.5 µM (inactive),24.6 µM (inactive),–,17.9 µM (inactive),32.9 µM (inactive),23.8 µM (inactive),28.6 µM (inactive),10.2 µM (inactive),31.3 µM (inactive),16.3 µM (inactive),21.1 µM (inactive),29.4 µM (inactive),21.2 µM (inactive),18.6 µM (inactive),44.8 µM (inactive),45.6 µM (inactive),12.9 µM (inactive),28.2 µM (inactive),–
Cc1ccc(/C=C2/N/C(=N\N=C/C(O)C(O)C(O)CO)NC2=O)cc1 (stereo not given),> 100 µM (inactive),> 100 µM (inactive),–,> 100 µM (inactive),> 100 µM (inactive),> 100 µM (inactive),79.4 µM (inactive),> 100 µM (inactive),–,> 100 µM (inactive),> 100 µM (inactive),63.5 µM (inactive) and 66.2 µM (inactive),> 100 µM (inactive),> 100 µM (inactive),> 100 µM (inactive),> 100 µM (inactive),> 100 µM (inactive),> 100 µM (inactive),–
O=C(O)C12CCC(CC1=O)C2 (stereo not given),> 100 µM (inactive),> 100 µM (inactive),> 100 µM (inactive),> 100 µM (inactive),> 100 µM (inactive),> 100 µM (inactive),> 100 µM (inactive),> 100 µM (inactive),> 100 µM (inactive),–,–,> 100 µM (inactive),> 100 µM (inactive),> 100 µM (inactive),> 100 µM (inactive),> 100 µM (inactive),> 100 µM (inactive),> 100 µM (inactive),–
Cc1nc2c(Cl)cc(Cl)cc2c2c1CCO2,–,> 100 µM (inactive),> 100 µM (inactive),> 100 µM (inactive),> 100 µM (inactive),> 100 µM (inactive),> 100 µM (inactive),> 100 µM (inactive),> 100 µM (inactive),67.1 µM (inactive),> 100 µM (inactive),> 100 µM (inactive),60.8 µM (inactive),> 100 µM (inactive),73.1 µM (inactive),> 100 µM (inactive),54 µM (inactive),–,> 100 µM (inactive)
CC1CC(N2CCOCC2)=Nc2ccccc2N1C (stereo not given),> 100 µM (inactive),> 100 µM (inactive),> 100 µM (inactive),> 100 µM (inactive),> 100 µM (inactive),> 100 µM (inactive),–,> 100 µM (inactive),56.4 µM (inactive),> 100 µM (inactive),> 100 µM (inactive),> 100 µM (inactive),0.0392 µM (active),> 100 µM (inactive),–,> 100 µM (inactive),> 100 µM (inactive),> 100 µM (inactive),–
CCOC(=O)Cn1nc2ccc(Nc3nc4ccccc4nc3C(=O)OCC)cc2n1,68.7 µM (inactive),54.6 µM (inactive),66.8 µM (inactive),> 100 µM (inactive),45.1 µM (inactive),> 100 µM (inactive),37.5 µM (inactive),33.9 µM (inactive),45.6 µM (inactive),60.1 µM (inactive),–,59.8 µM (inactive),16.8 µM (inactive),> 100 µM (inactive),31.1 µM (inactive),> 100 µM (inactive),52 µM (inactive),98.4 µM (inactive),83 µM (inactive)
N#CC(C#N)=c1c2ccccc2c(=C(C#N)C#N)c2ccccc12,19.4 µM (inactive),17.1 µM (inactive),13.2 µM (inactive),23.1 µM (inactive),–,23 µM (inactive),–,20.8 µM (inactive),–,23.8 µM (inactive),16.4 µM (inactive),17.7 µM (inactive),18.1 µM (inactive),17.4 µM (inactive),32.9 µM (inactive),20.9 µM (inactive),–,16.1 µM (inactive),–
CCOC(=O)C(Cl)(Cl)/S(=N\S(=O)(=O)c1ccccc1)NC(=O)c1ccccc1 (stereo not given),> 100 µM (inactive),> 100 µM (inactive),> 100 µM (inactive),> 100 µM (inactive),> 100 µM (inactive),> 100 µM (inactive),> 100 µM (inactive),> 100 µM (inactive),> 100 µM (inactive),> 100 µM (inactive),> 100 µM (inactive),> 100 µM (inactive),> 100 µM (inactive),> 100 µM (inactive),> 100 µM (inactive),> 100 µM (inactive),> 100 µM (inactive),> 100 µM (inactive),–
O=C(CCCN1CCC(Nc2ccccc2)(c2nnnn2C2CCCCC2)CC1)c1ccc(F)cc1,6.17 µM (inactive),4.21 µM (inactive),11.7 µM (inactive),2.52 µM (inactive),14.5 µM (inactive),7.96 µM (inactive),–,10.3 µM (inactive),3.24 µM (inactive),> 10 µM (inactive),8.65 µM (inactive),17.9 µM (inactive),10.2 µM (inactive),1.99 µM (inactive),–,7.23 µM (inactive),3.3 µM (inactive),3.94 µM (inactive),3.29 µM (inactive)
CC(C)CCCC(C)[C@H]1CC[C@H]2N/C(=N/c3ccccc3)CCC[C@]12C (stereo not given in full),2.52 µM (inactive),1.67 µM (inactive),1.85 µM (inactive),2.12 µM (inactive),1.6 µM (inactive),2.9 µM (inactive),3.09 µM (inactive),2.26 µM (inactive),2.67 µM (inactive),3.35 µM (inactive),1.14 µM (inactive),1.86 µM (inactive),1.88 µM (inactive),1.87 µM (inactive),2.97 µM (inactive),–,–,2.97 µM (inactive),–
Nc1ccc(C(=O)c2cn(CCN3CCOCC3)c3ccccc23)c2ccccc12,83.4 µM (inactive),36.6 µM (inactive),34 µM (inactive),45.6 µM (inactive),33.3 µM (inactive),19.1 µM (inactive),24.4 µM (inactive),28.2 µM (inactive),34.1 µM (inactive),65.6 µM (inactive),–,–,–,44.6 µM (inactive),–,39.3 µM (inactive),21.2 µM (inactive),36.1 µM (inactive),47.2 µM (inactive)
OCCCSc1ccccc1SCCCO,> 100 µM (inactive),–,> 100 µM (inactive),> 100 µM (inactive),> 100 µM (inactive),> 100 µM (inactive),> 100 µM (inactive),–,–,–,> 100 µM (inactive),–,17.2 µM (inactive),> 100 µM (inactive),< 0.01 µM (active),> 100 µM (inactive),> 100 µM (inactive),> 100 µM (inactive),> 100 µM (inactive)
CC(C)(NC(=O)OCc1ccccc1)C(=O)NC(Cc1ccccc1)C(=O)O (stereo not given) (Cbz-[Aib]-[ξF]-OH),> 100 µM (inactive),> 100 µM (inactive),> 100 µM (inactive),> 100 µM (inactive),> 100 µM (inactive),> 100 µM (inactive),> 100 µM (inactive),> 100 µM (inactive),> 100 µM (inactive),> 100 µM (inactive),> 100 µM (inactive),> 100 µM (inactive),> 100 µM (inactive),> 100 µM (inactive),> 100 µM (inactive),> 100 µM (inactive),–,> 100 µM (inactive),–
